{
  "source": "patent US9056069B2",
  "about": "“Cancer therapy based on tumor associated antigens derived from cyclin D1” (IMMATICS BIOTECHNOLOGIES GMBH, priority 2010, dated 2015)",
  "key": {"mRCC": {"tested_on": "mRCC", "type": "in vivo, human", "excerpt": "Some patients received a prior TKI therapy with sunitinib or sorafenib, others a prior cytokine therapy with interferon or interleukin.\nBoth patient groups were followed up for progression-free survival (PFS) and overall survival (OS)."}, "[1]": {"tested_on": "HLA-A*02 positive tumor cells endogenously expressing Cyclin D1", "conditions": "allo-restricted T cells of HLA-A2-negative donors; cited from earlier work"}, "CTL": {"tested_on": "CTL", "conditions": "healthy donors, colon cancer and mantle cell lymphoma patients; autologous CD40-activated B cells as APCs; cited from earlier work"}, "HLA class-II": {"tested_on": "HLA class-II", "assay": "Binding to HLA class-II", "set-up": "species or system human"}},
  "note": "Entries after “also recorded” stand apart in the source; their conditions may differ.",
  "data": [
    {"molecule": "LLGATCMFV (listed as Homo sapiens) [CCN-001, cyclin D1-derived peptide, aa 101-109]", "values": [
      {"measurement": "survival of patients responding against CCN-001 versus non-CCN-001-responding patients", "setting": "mRCC; all vaccinated patients", "value": "significant longer survival; also recorded: survive significantly longer"},
      {"measurement": "favorable effect of T cell response against CCN-001 on survival", "setting": "mRCC; patient group pretreated with cyclophosphamide", "value": "even more evident"},
      {"measurement": "lysis of tumor cells by T cell clones recognizing the peptide", "setting": "[1]", "value": "could lyse HLA-A*02 positive tumor cells endogenously expressing Cyclin D1"},
      {"measurement": "generation of epitope-specific CTL", "setting": "CTL", "value": "could be generated from HLA-A2+ donors"}
    ]},
    {"molecule": "O=P1(N(CCCl)CCCl)NCCCO1", "note": "(stereo not shown) [cyclophosphamide]", "values": [
      {"measurement": "effect of prior low-dose cyclophosphamide treatment on outcome of vaccine treatment", "setting": "mRCC; cyclophosphamide 300 mg/m2 single infusion before vaccination", "value": "further significantly improved the outcome"}
    ]},
    {"molecule": "NPPSMVAAGSVVAAV (listed as Homo sapiens) [CCN-003, cyclin D1-derived peptide, aa 198-212]", "values": [
      {"measurement": "HLA restriction", "setting": "HLA class-II", "value": "appears DRB1*0401 restricted"},
      {"measurement": "binding to HLA class-II", "setting": "HLA class-II", "value": "binds to HLA class-II"}
    ]}
  ]
}
